Test results as given in US11179450B2, “Long chain antigen containing interepitope sequence that promotes antigen presentation to T cells” (MIE UNIVERSITY, priority 2013, dated 2021).

Assays:
Type in all cases: in vivo, BALB/c mice
[1] = test system: mouse fibrosarcoma cell line CMS5a; experiment: Mouse tumor growth test; details: FIG. 2; single dose of vaccine with CpG oligo DNA before subcutaneous CMS5a implantation (prophylactic condition); Student's t test
Excerpt: Long chain peptide antigens MEN, all containing three types of mouse CD8+ T cell epitope sequences (MA p265 (Sequence No. 27), NY p81 (Sequence No. 29), and mERK2 9m (Sequence No. 28)), were synthesized. The interepitope sequences between the respective epitopes were respectively six consecutive tyrosines (Y6) (Sequence No. 1), six consecutive glycines (G6) (Sequence No. 2), or six consecutive prolines (P6) (Sequence No. 3). Each long chain peptide antigen was complexed with CHP and administered in a single dose as a vaccine to a mouse. As a control, a short chain peptide vaccine, constituted of just the mERK2 9m peptide, was mixed with Freund's incomplete adjuvant and administered. In the process of administration, CpG oligo DNA was coadministered as an adjuvant. On the day after administration, a mouse fibrosarcoma cell line CMS5a, expressing mERK2 as a tumor antigen and presenting the CD8+ T cell epitope mERK2 9m derived from the same antigen, was implanted subcutaneously and its growth was recorded over time.
A subcloned CMS5a cell line, obtained from a CMS5 cell line isolated from fibrosarcoma induced by administering 3-methylcholanthrene to a BALB/c mouse, expresses mutant ERK2 (mERK2) as a tumor antigen and presents a CD8^+ T cell epitope derived from the mERK2. The CMS5a cell line cultured in a T75 flask (Nunc) was detached using PBS containing 0.5% trypsin and collected in RPMI1640 medium containing 10% FBS. After centrifuging (400×g, 5 minutes, 4° C.), the supernatant was removed, and the cells were rinsed twice with RPMI1640 medium, thereafter suspended in RPMI1640 medium at a concentration of 1×10^6 cells/100 μL, and implanted subcutaneously in BALB/c mice at a dose of 100 μL/individual. The CHP/long chain peptide complexes and the adjuvant were administered 7 days before tumor implantation (prophylactic condition). After tumor implantation, the length and breadth of the tumor were measured and the product thereof was recorded as tumor size. The data in the tumor growth test were compared by Student's t test using Microsoft® Excel® (Microsoft Corporation).

[2] = test system: CD8+ T cells specific to MA p265, NY p81 and mERK2 9m; experiment: Specific CD8+ T cell induction by CHP/long chain peptide vaccines in mice, intracellular cytokine staining of spleen cells; details: for induction of specific CD8+ T cells corresponding to all three types of epitopes: FIG. 1, MEN antigens complexed with CHP, subcutaneous, CpG oligo DNA adjuvant, spleen cells one week after final administration
Excerpt: Long chain peptide antigens MEN, all containing three types of mouse CD8+ T cell epitope sequences (MA p265 (Sequence No. 27), NY p81 (Sequence No. 29), and mERK2 9m (Sequence No. 28)), were synthesized. The interepitope sequences between the respective epitopes were respectively six consecutive tyrosines (Y6) (Sequence No. 1), six consecutive glycines (G6) (Sequence No. 2), six consecutive prolines (P6) (Sequence No. 3), or six consecutive threonines (T6) (Sequence No. 4). Each long chain peptide antigen was complexed with cholesterol-modified pullulan (CHP), which is a type of delivery system, and administered as a vaccine to a mouse. In the process of administration, CpG oligo DNA was coadministered as an adjuvant. Spleen cells were collected one week after the final administration and the frequencies of CD8+ T cells specific to the respective epitope sequences were measured by an intracellular cytokine staining method.
Long chain peptide antigens NME, all containing three types of mouse CD8+ T cell epitope sequences (MA p265 (Sequence No. 27), NY p81 (Sequence No. 29), and mERK2 9m (Sequence No. 28)), were synthesized. The antigens differ from the MEN sequences shown in FIG. 1 in the order of the three types of epitopes. The interepitope sequences between the respective epitopes were respectively six consecutive tyrosines (Y6) (Sequence No. 5), six consecutive glycines (G6) (Sequence No. 6), or six consecutive prolines (P6) (Sequence No. 7). Vaccines containing the respective long chain peptide antigens were administered to mice in the same manner as in FIG. 1 and the frequencies of CD8+ T cells specific to the respective epitope sequences were measured by the intracellular cytokine staining method.
(§1) Long chain peptide antigens MEN, ENM, and NME, all containing three types of mouse CD8+ T cell epitope sequences (MA p265 (Sequence No. 27), NY p81 (Sequence No. 29), and mERK2 9m (Sequence No. 28)), were synthesized. MEN, ENM, and MEN differ in the order of the three types of epitopes. The interepitope sequences between the respective epitopes were each six consecutive tyrosines (Y6) (Sequence Nos. 1, 5 and 8). Vaccines containing the respective long chain peptide antigens were administered to mice in the same manner as in FIG. 1 and the frequencies of CD8+ T cells specific to the respective epitope sequences were measured by the intracellular cytokine staining method.
Each long chain peptide was dissolved in dimethyl sulfoxide (DMSO) at a concentration of 10 mg/mL. CHP was dissolved in 6 M urea-containing phosphate buffered saline (PBS) at a concentration of 10 mg/mL 1 mL (10 mg) of the long chain peptide solution and 20 mL (200 mg) of the CHP solution were mixed and left to stand at room temperature overnight in a dark place. The liquid mixture was transferred into a dialysis membrane (molecular weight cutoff: 3,500; Thermo Fisher Scientific, Inc.) and dialyzed for 2 hours to overnight at 4° C. against 0.6 M urea-containing PBS of a volume ratio of not less than 100 times as the dialysis outer solution. Dialysis was then performed for 2 hours to overnight at 4° C. against 0.06 M urea-containing PBS of a volume ratio of not less than 100 times as the dialysis outer solution. Dialysis was performed again for 2 hours to overnight at 4° C. against PBS of a volume ratio of not less than 100 times as the dialysis outer solution. The dialyzed inner solution was collected, filtered through a filtration sterilization filter of 0.45 μm or 0.22 μm pore size, and thereafter the UV absorption at 280 nm was measured to determine the final concentration of the long chain peptide from its molecular extinction coefficient.
Each CHP/long chain peptide complex as the vaccine and the CpG oligo DNA as the adjuvant were administered at the same time to a mouse. Administration was performed by subcutaneous injection on the back of the mouse. […]

[3] = test system: F4/80+ cells (macrophages); experiment: Uptake of FAM-labeled long chain peptide antigens in individual animals, regional lymph node macrophages; details: FIG. 9, complexed with CHP, subcutaneous, 16 hours after administration
Procedure: The same FAM-labeled long chain peptide antigens as those in FIG. 8 were complexed with CHP and administered subcutaneously to mice. After 16 hours, cells were collected from a regional lymph node of the administration site, and the fluorescence uptakes into dendritic cells and mouse macrophages were measured by flow cytometry with the P4 fraction in the figure being deemed to correspond to the dendritic cells and the P5 fraction in the figure being deemed to correspond to the macrophages.
A test of uptake of long chain peptide antigens by antigen-presenting cells in individual animals was performed as follows. Each long chain peptide was fluorescence-labeled, complexed with a CHP nanogel, administered subcutaneously to BALB/c mice. 16 hours after administration, cells were collected from lymph nodes and after staining with the anti-CD11c antibody and the anti-F4/80 antibody, the uptake of the fluorescence-labeled long chain peptide antigens by CD11c^+ cells (dendritic cells) and F4/80^+ cells (macrophages) was analyzed by flow cytometry.

[4] = test system: mERK2 9m specific CD8+ T cells; experiment: Specific CD8+ T cell induction in mice, intracellular cytokine staining (mERK2 9m epitope); details: FIG. 6; comparing one to six tyrosines
Procedure: as §1, with “MEN,” for “MEN, ENM, and NME,”, “synthesized.” for “synthesized. MEN, ENM, and MEN differ in the order of the three types of epitopes.”, “one to” for “each”, “tyrosines” for “tyrosines (Y6)”, “1” for “1, 5”, “9-12).” for “8).”
as §1, with “MEN,” for “MEN, ENM, and NME,”, “synthesized.” for “synthesized. MEN, ENM, and MEN differ in the order of the three types of epitopes.”, “five to ten” for “each six”, “tyrosines” for “tyrosines (Y6)”, “1” for “1, 5”, “13-15).” for “8).”
Each CHP/long chain peptide complex as the vaccine and the CpG oligo DNA as the adjuvant were administered at the same time to a mouse. Administration was performed by subcutaneous injection on the back of the mouse. As the dose, the CHP/long chain peptide complex was administered at 0.05 to 0.1 mg equivalent of long chain peptide per administration. The CpG oligo DNA was administered at 0.05 mg per administration. One week after the final administration, spleen cells were separated by the following procedure from each vaccine-administered mouse. The spleen was isolated from the mouse and removed of blood by rinsing with RPMI1640 medium. After the spleen was triturated using a glass slide, the released cells were collected in RPMI1640 medium. After centrifuging (400×g, 5 minutes, 4° C.), the supernatant was removed and the cells were treated for 1 minute by adding 2 mL of ACK solution. […]

Sequence	growth of the tumor [1]	induction of specific CD8+ T cells corresponding to all three types of epitopes [2]	fluorescence uptake into macrophages of the regional lymph node [3]	number of tyrosines of the interepitope sequence, judged in view of the results for the three types of epitopes ([2]; FIG. 6, comparing one to six tyrosines)	induction of specific CD8+ T cells, mERK2 9m (second epitope) [4]
QYIHSANVL [mERK2 9m, reference compound]	significant suppression of tumor growth was not observed				
SNPARYEFLGGGGGGQYIHSANVLGGGGGGRGPESRLL (Long chain peptide antigen, containing three types of mouse CD8+ T cell epitope sequences (MA p265, NY p81, and mERK2 9m)) [MEN(G6)]	significant suppression of tumor growth was not observed	clearly weak	hardly observed		
SNPARYEFLPPPPPPQYIHSANVLPPPPPPRGPESRLL (Long chain peptide antigen, containing three types of mouse CD8+ T cell epitope sequences (MA p265, NY p81, and mERK2 9m)) [MEN(P6)]	significant suppression of tumor growth was not observed	clearly weak	hardly observed		
SNPARYEFLYYYYQYIHSANVLYYYYRGPESRLL (Long chain peptide antigen, containing three types of mouse CD8+ T cell epitope sequences (MA p265, NY p81, and mERK2 9m)) [MEN(Y4)]				satisfactory	highest
